Measurements taken from PMC10141139 (2023).

How the values were obtained:
[1] = system: Negative control (RNA, single strand) UUACCCUUACCCUUACCCUUACCCUUA; experiment: ThT fluorescence light-up; settings: pH 7.4, 34 °C, 5 µM RNA, 5 µM ThT highest tested
[2] = system: miniTERRA (RNA, G4) UUAGGGUUAGGGUUAGGGUUAGGGUUA; experiment: ThT fluorescence light-up; settings: pH 7.4, 34 °C, 5 µM RNA, 5 µM ThT
[3] = system: miniTERRA (RNA, G4) UUAGGGUUAGGGUUAGGGUUAGGGUUA; experiment: fluorescent indicator displacement (ThT); settings: pH 7.4, 34 °C, 5 µM RNA, 5 µM ThT displaced

Compound | binding ([1]; K+ (100 mM phosphate)) | binding ([1]; Na+ (100 mM phosphate)) | binding ([2]; K+ (100 mM phosphate)) | binding ([2]; Na+ (100 mM phosphate)) | IC50 ([3]; K+ (100 mM phosphate)) | IC50 ([3]; Na+ (100 mM phosphate))
Cc1ccc2c(c1)sc(-c1ccc(N(C)C)cc1)[n+]2C | no | no | yes | yes |  | 
NCCOc1cc(C(=O)Nc2cc(OCCN)c3ccccc3n2)nc(C(=O)Nc2cc(OCCN)c3ccccc3n2)c1 |  |  |  |  | 17.23 ± 0.28 µM | 19.29 ± 0.25 µM
